According to ChEMBL document CHEMBL1201862, “PubChem BioAssay data set” (2004):
Active and inactive are the calls of the source.

Tests used:
[1] = Luminescence Cell-Based Dose Response HTS to Identify Activators of Luciferase Translation or Activity in H4-C Neuroglioblastoma Cells. [Related pubchem assays: 1829 (Project Summary), 1814 (Primary HTS)]; assay type: functional
[2] = Luminescence Cell-Based Dose Confirmation HTS to Identify Inhibitors of 5'UTR Stem-Loop Driven Alpha-Synuclein mRNA Translation in H4 Neuroglioblastoma Cells. [Related pubchem assays: 1827 (Project Summary), 1813 (Primary HTS)]; assay type: functional
[3] = Luminescence Cell-Based Dose Response HTS to Identify Inhibitors of Luciferase Translation or Activity in H4-C Neuroglioblastoma Cells. [Related pubchem assays: 1813 (Primary HTS), 1827 (Project Summary)]; assay type: functional
[4] = Luminescence Cell-Based Dose HTS Response to Identify Inhibitors of 5'UTR Stem-Loop Driven Prion Protein mRNA Translation in H4-C Neuroglioblastoma Cells. [Related pubchem assays (depositor defined):AID1814, AID1827]; assay type: functional
[5] = Luminescence Cell-Based Dose Response HTS to Identify Activators of 5'UTR Stem-Loop Driven Prion Protein mRNA Translation in H4-C Neuroglioblastoma Cells. [Related pubchem assays: 1829 (Project Summary), 1814 (Primary HTS)]; assay type: functional
[6] = target: T1, Voltage-gated N-type calcium channel alpha-1B subunit/Amyloid beta A4 precursor protein-binding family A member 1 (Homo sapiens, UniProt Q00975+Q02410); assay type: protein assay
[7] = target: T1, Voltage-gated N-type calcium channel alpha-1B subunit/Amyloid beta A4 precursor protein-binding family A member 1; assay type: protein assay; remark: listed apart in the source
[8] = target: T2, Microphthalmia-associated transcription factor (Homo sapiens, UniProt O75030); experiment: TRPM1 promoter luciferase signal decrease, dose response, MITF inhibitor project, cell-based, SK-MEL-5, cherry-picked, set 3 (AID 493073); assay type: functional
T2 sequence (O75030 whole entry): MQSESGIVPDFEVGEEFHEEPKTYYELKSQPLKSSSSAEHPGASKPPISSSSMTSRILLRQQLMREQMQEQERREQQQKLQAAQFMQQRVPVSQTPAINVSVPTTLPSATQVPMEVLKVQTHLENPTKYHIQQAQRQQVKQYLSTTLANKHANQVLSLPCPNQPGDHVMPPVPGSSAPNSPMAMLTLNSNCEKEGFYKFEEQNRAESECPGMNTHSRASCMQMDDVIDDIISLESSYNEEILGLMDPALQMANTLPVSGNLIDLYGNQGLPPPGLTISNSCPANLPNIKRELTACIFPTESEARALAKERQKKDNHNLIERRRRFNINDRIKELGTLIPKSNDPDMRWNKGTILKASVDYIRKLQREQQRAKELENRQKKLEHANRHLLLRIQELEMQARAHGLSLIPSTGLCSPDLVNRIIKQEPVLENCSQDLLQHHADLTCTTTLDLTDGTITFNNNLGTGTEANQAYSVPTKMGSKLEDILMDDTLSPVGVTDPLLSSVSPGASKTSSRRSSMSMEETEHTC

[9] = growth suppression of beta-catenin-knockout colon cells, dose response, cell-based, HCT116, human colon tumor (AID 1045); assay type: functional;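 note: HCT116 colon tumor cells with beta catenin knocked out; cells exposed to compound for 60 hours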
[10] = target: G-protein coupled receptor 55 (Homo sapiens, UniProt Q9Y2T6); experiment: GPR55 antagonists blocking LPI-driven arrestin recruitment, primary screen, imaging, U2OS, beta-arrestin-GFP, LPI agonist (AID 2013); assay type: functional;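 note: antagonist potency measured as reduced agonist-driven arrestin aggregation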
Beta-galactosidase = Beta-galactosidase (Escherichia coli, UniProt Q8VNN2); experiment: beta-galactosidase enzyme inhibitors and activators, dose response, artefact control for CCR6 antagonist project, biochemical, E. coli enzyme, set 3 (AID 504712); assay type: functional
[11] = growth suppression of PTEN-null colon cells, dose response, cell-based, HCT116 PTEN knockout (AID 1047); assay type: functional;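 note: HCT116 colon tumor cells with PTEN knocked out; cells exposed to compound for 60 hours before readout; potency for loss of cell viability measured by luminescence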
[12] = target: T3, E3 ubiquitin-protein ligase XIAP (Homo sapiens, UniProt P98170); experiment: Counter Screen using XIAP-Bir3 for Chemical Antagonists of Bir1/2 domains of IAP-family anti-apoptotic proteins. [Related pubchem assays (depositor defined):AID1018, AID1449, AID1514, AID1638, AID1749, AID1750, AID488957, AID488963]
[13] = target: T3, E3 ubiquitin-protein ligase XIAP; experiment: XIAP antagonists, biochemical, IAP family, fluorescence polarization (AID 1018); assay type: functional
CAAX prenyl protease 2 = CAAX prenyl protease 2 (Saccharomyces cerevisiae S288c, UniProt Q03530); assay type: biochemical
[14] = cytotoxicity toward NIH3T3 fibroblasts, dose response, counter-screen, cell-based, ATP luminescence, mouse fibroblasts (AID 2010); assay type: functional;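 note: cells exposed to compound for about 90 hours before reading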
Trypsin = Trypsin (Sus scrofa, UniProt P00761); experiment: porcine trypsin inhibitors, dose response, selectivity assay for Rce1 protease inhibitor project, biochemical, quenched peptide fluorescence, cherry-pick (AID 488789)
Trypsin, sequence (P00761 whole entry): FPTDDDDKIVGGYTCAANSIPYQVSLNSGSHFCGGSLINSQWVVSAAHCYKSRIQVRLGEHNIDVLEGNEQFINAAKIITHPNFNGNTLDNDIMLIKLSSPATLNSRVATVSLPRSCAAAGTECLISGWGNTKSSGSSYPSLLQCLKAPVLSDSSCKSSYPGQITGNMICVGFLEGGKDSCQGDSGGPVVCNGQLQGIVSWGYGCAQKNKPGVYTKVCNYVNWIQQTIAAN

T1 sequence (Q00975 whole entry): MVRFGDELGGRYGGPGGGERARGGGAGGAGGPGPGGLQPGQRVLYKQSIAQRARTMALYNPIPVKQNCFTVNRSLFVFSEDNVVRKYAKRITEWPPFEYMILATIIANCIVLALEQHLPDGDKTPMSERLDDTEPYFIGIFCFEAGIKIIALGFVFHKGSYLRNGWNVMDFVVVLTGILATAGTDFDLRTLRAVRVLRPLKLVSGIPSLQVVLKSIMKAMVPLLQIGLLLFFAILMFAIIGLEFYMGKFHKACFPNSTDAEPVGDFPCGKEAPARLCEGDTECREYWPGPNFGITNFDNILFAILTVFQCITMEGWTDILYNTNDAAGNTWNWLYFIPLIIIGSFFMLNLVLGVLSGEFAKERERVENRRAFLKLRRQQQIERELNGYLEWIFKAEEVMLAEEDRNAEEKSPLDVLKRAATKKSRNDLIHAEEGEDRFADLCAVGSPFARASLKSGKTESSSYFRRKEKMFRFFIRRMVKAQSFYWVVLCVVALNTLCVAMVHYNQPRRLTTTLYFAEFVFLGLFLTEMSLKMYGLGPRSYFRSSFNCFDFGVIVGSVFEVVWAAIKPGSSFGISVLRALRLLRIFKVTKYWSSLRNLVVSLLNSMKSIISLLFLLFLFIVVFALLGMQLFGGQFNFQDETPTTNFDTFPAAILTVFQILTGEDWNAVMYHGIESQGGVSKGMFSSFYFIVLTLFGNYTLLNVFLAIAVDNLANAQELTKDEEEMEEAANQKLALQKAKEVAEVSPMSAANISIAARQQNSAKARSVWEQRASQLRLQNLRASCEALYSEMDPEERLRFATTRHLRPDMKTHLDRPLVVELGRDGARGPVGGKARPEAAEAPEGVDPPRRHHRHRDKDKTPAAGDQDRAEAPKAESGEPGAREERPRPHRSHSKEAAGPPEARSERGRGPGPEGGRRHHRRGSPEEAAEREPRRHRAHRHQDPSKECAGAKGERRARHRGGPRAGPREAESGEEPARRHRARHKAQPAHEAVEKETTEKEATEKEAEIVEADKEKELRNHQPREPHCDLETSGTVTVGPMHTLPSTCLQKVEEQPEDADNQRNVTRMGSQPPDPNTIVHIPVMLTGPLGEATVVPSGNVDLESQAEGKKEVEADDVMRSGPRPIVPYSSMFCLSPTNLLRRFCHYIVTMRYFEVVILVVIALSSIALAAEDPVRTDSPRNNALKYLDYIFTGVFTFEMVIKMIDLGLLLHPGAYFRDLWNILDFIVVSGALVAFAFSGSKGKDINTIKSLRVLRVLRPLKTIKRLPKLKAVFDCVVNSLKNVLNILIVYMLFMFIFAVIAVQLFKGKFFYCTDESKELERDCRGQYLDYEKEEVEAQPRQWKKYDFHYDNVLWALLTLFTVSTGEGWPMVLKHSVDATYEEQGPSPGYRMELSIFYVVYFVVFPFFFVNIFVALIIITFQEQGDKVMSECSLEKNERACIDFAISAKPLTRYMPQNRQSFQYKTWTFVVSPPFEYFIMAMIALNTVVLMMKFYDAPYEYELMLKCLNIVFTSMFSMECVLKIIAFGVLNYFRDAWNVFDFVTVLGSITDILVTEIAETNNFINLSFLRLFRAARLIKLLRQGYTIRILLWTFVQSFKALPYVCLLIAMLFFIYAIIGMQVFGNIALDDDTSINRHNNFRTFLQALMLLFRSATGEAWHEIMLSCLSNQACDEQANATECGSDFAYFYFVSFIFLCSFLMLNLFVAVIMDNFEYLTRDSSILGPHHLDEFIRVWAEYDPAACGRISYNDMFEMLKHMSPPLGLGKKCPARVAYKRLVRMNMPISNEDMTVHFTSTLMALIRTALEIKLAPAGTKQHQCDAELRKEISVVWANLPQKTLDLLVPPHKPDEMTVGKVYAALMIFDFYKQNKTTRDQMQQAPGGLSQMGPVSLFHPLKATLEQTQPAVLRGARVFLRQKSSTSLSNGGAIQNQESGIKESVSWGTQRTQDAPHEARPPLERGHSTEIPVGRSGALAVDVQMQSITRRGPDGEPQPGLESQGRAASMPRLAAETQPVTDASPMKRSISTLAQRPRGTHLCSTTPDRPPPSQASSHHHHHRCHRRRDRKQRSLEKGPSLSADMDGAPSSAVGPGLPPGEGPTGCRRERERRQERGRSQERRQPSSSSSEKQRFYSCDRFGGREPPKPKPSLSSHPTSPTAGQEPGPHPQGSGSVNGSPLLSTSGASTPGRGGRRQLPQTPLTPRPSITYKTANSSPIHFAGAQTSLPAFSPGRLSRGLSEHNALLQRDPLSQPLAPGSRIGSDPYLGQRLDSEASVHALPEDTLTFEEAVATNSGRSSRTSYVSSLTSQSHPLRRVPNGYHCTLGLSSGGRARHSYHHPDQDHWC
T1 sequence (Q02410 whole entry): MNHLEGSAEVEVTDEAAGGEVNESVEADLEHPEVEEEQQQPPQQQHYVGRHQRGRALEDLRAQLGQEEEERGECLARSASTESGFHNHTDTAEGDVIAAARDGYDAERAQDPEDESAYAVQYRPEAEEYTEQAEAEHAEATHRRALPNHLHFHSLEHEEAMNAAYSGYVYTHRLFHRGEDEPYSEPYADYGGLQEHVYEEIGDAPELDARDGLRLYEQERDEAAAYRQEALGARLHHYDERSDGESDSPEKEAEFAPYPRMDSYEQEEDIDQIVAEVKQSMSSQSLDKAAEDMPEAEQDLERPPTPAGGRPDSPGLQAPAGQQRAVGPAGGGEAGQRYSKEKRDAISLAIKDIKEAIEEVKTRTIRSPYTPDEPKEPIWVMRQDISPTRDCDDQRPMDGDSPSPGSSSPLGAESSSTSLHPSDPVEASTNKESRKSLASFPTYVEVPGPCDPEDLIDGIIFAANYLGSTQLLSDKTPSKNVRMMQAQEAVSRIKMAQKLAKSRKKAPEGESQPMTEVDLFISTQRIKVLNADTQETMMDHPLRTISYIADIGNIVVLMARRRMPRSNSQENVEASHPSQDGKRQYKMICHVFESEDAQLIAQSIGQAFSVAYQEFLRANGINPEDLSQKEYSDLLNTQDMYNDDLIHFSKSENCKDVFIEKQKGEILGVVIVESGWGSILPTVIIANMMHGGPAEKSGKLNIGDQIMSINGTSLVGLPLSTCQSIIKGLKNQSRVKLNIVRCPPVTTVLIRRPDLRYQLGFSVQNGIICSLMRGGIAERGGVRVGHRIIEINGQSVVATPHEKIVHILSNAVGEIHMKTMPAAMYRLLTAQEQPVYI
G-protein coupled receptor 55, sequence (Q9Y2T6 whole entry): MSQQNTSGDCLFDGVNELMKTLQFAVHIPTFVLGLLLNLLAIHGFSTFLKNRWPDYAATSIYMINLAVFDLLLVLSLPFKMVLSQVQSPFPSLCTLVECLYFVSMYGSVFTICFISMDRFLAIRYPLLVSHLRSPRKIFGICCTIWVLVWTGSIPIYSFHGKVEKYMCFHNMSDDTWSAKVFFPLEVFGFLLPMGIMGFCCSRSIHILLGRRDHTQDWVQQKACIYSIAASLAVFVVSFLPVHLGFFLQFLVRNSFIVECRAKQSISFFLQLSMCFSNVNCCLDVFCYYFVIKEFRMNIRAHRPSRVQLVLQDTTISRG
T3 sequence (P98170 whole entry): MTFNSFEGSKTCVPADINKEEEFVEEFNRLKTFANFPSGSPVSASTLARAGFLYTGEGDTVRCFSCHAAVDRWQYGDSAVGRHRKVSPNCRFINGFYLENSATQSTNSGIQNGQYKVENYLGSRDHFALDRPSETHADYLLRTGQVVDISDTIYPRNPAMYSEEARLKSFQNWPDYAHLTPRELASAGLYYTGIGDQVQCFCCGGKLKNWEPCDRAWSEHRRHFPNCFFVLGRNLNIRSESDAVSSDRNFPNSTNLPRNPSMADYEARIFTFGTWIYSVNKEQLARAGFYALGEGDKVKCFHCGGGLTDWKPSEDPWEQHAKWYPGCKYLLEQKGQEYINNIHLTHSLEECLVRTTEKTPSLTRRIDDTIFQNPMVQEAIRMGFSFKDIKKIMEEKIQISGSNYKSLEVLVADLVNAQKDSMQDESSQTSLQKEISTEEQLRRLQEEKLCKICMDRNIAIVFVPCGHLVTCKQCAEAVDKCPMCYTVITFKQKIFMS
CAAX prenyl protease 2, sequence (Q03530 whole entry): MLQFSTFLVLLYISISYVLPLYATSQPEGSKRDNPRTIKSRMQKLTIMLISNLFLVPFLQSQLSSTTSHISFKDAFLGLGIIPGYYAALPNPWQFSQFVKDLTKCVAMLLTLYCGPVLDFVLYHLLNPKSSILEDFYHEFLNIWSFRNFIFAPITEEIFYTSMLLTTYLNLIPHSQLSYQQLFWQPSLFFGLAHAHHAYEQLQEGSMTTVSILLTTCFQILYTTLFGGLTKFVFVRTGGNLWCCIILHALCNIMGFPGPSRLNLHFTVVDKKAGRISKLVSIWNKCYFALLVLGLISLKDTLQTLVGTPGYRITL

SMILES: CC(=O)O[C@@]12CO[C@@H]1C[C@H](O)[C@@]1(C)C(=O)[C@H](O)C3=C(C)[C@@H](OC(=O)[C@H](O)[C@@H](NC(=O)c4ccccc4)c4ccccc4)C[C@](O)([C@@H](OC(=O)c4ccccc4)[C@H]21)C3(C)C
- EC50 [1]: 73.1 µM (inconclusive)
- EC50 [2]: 2.3 µM (active)
- EC50 [3]: 692 nM (active)
- EC50 [4]: 2.4 µM (active)
- EC50 [5]: 2.02 µM (inconclusive)

SMILES: CC1=C(C(=O)O)N2C(=O)C(NC(=O)CCCC(=O)O)C2SC1 (stereo not drawn)
- IC50 [6]: > 50 µM (inactive)
- IC50 [7]: > 56.8 µM (not active)

SMILES: CC1=NOC(=O)/C1=C\c1ccc(-c2cccc(Cl)c2)o1
- AC50 [8]: 5.36 µM (active)
- EC50 [9]: 11.8 µM (active)
- IC50 [10]: 8.52 µM (active)
- IC50 (Beta-galactosidase): > 66.6 µM (inactive)
- EC50 [11]: 14.5 µM (active)

SMILES: CCOc1ccccc1NC(=O)C1=C(C)NC(=S)NC1c1cccs1 (stereo not drawn)
- IC50 [12]: > 100 µM (inactive)
- IC50 [13]: > 100 µM (not active)

SMILES: COc1ccc(C2CC(c3ccccc3)=NN2C(=O)c2ccc(Cl)c([N+](=O)[O-])c2)cc1 (stereo not drawn)
- AC50 (CAAX prenyl protease 2): 26.1 µM (active)
- EC50 [14]: 32.6 µM (active)
- AC50 (Trypsin): 77.7 µM (active)

SMILES: CCOC(=O)c1cc(C#N)c(Oc2ccc(F)cc2)nc1-c1ccccc1
- IC50 [10]: 3.03 µM (active)
